The source of these data is US20100210722A1, “COMPOSITION FOR PREVENTING OR TREATING LIPID METABOLIC DISORDERS COMPRISING FUCOXANTHIN OR MARINE PLANT EXTRACT CONTAINING SAME” (AMICOGEN, INC., priority 2007, published 2010).

Marks after values point to notes of the source that are not given here.

Common to all, as to format: in vivo, C57BL/6N/CriBgi mice
Test [1] can be described thus: Triglyceride and cholesterol level in plasma. Conditions: high fat diet, 6 weeks, fasted 12 hours. As for the experimental part: (§1) Seventy (70) 4-week-old male C57BL/6N/CriBgi mice weighing 14 g were purchased from Orient, and reared in separate cages maintained at 24° C. and relative humidity of 55%, providing light from 08:00 until 20:00. The mice were accustomed while providing a pellet type diet for a week. The mice, which weighed 18.5-18.7 g, were grouped into seven groups by the randomized block design. Each group was given a different diet, as follows.
(§2) Test diets were as follows: “normal diet group”=AIN-76 semisynthetic diet of Teklad (Madison, Wl, USA); “high fat diet group”=normal diet+10% of corn oil and 10% of lard; “test group I”=high fat diet+fucoxanthin extract of Example 1 (fucoxanthin content=0.05%); “test group II”=high fat diet+fucoxanthin extract of Example 1 (fucoxanthin content=0.2%); “test group III”=high fat diet+fucoxanthin extract of Example 2 (fucoxanthin content=0.05%); “test group IV”=high fat diet+fucoxanthin extract of Example 2 (fucoxanthin content=0.2%). The 6 diets (normal diet, high fat diet, and test I, II, III and IV) were given to the animals for 6 weeks. Diet intake was recorded every day, and body weight was measured once a week.
The mice fed with the test diets for 6 weeks of Reference Example 1 were fasted for 12 hours. The mice were anesthetized first by ether inhalation, and then by intramuscular injection of ketamine-HCl (Yuhan). […] Plasma was separated by carrying out centrifuge at 3,000 rpm for 15 minutes. The separated plasma was stored at −70° C.

Test [2] can be described thus: Amount of feces and cholesterol content in feces. Conditions: high fat diet, 6 weeks. As for the experimental part:
as §1, §2
Feces were taken from the mice fed with the test diets for 6 weeks of Reference Example 1. The amount of feces and cholesterol content in the feces were measured.

For test [3], the system named is glucose-6-phosphate dehydrogenase (G6PD). The experiment in a line: G6PD activity in liver tissue. Particulars: high fat diet, 6 weeks.
From the text: as §2
The supernatant was centrifuged again at 12,000×g for 15 minutes. Then, the supernatant was subjected to high-speed centrifuging (Beckman, Optima TLX-120, USA) at 100,000×g for 1 hour. Then, change of the activity of enzymes involved in the synthesis of fatty acid—fatty acid synthase (FAS), glucose-6-phosphate dehydrogenase (G6PD) and malic enzyme (ME)—was measured.
The G6PD enzyme is an enzyme that supplied reducing energy required for the synthesis of fatty acid. […] G6PD activity was measured at 340 nm by the degree of reduction of NADP^+ to NADPH by G6PD. […] G6PD activity was calculated as nmol of NADPH produced per 1 mg of protein in cell per minute.

Test [4] concerns carnitine palmitoyltransferase (CPT). The experiment in a line: CPT activity (mitochondrial fraction). Particulars: high fat diet, 6 weeks.
From the text: as §2
CPT is an enzyme involved in the oxidation of fatty acid and may be used as an index for the degree of oxidation of fatty acid. CPT activity was calculated from the measurement of CoASH produced from palmitoyl-CoA using 5,5-dithiobis-(2-nitrobenzoic acid) (DTNB). Specifically, 50 μL of mitochondrial fraction was added to a reaction solution containing 116 mM Tris-HCl (pH 8.0), 1.1 mM EDTA, 2.50 mM 1-carnitine, 0.5 mM DTNB, […] palmitoyl-CoA and 0.2% Triton X-100 to initiate reaction. Then, change of absorbance was measured at 25° C. and 412 nm for 2 minutes.

For the next test, the system named is β-oxidation. Briefly: Mitochondrial β-oxidation activity. Particulars: mitochondrial fraction, high fat diet, 6 weeks.
From the text: as §2
Mitochondrial β-oxidation activity was measured from the degree of reduction of NAD to NADH using palmitoyl-CoA. Specifically, 10 μL of mitochondrial fraction was added to a reaction solution containing 50 mM Tris-HCl (pH 8.0), 20 mM NAD, 0.33 M DTT, 1.5% BSA (1.5 g/100 mL), 2% Triton X-100 (2 g/100 mL), 10 mM CoA, 1 mM FAD, 100 mM KCN and 5 mM palmitoyl-CoA to initiate reaction. Then, change of absorbance was measured at 37° C. and 340 nm for 5 minutes. β-Oxidation activity was calculated as nmol of NADH produced per 1 mg of mitochondrial protein per minute.

Test [5] concerns peroxisome proliferator-activated receptor α (PPARα) mRNA. Briefly: Expression of mRNA for PPARα in liver tissue (real-time PCR). For orientation: Real-time PCR tracks product formation cycle by cycle.
In the next test the test system is ME mRNA. The experiment in a line: Expression of mRNA for ME in liver tissue (real-time PCR).
[6] abbreviates: fucoxanthin content 0.05% (Test I/III).
[7] abbreviates: fucoxanthin content 0.2% (Test II/IV).
The mark [8] stands for this setting: normal diet = 1.00, fucoxanthin content 0.05% (Test I/III).
The mark [9] stands for this setting: normal diet = 1.00, fucoxanthin content 0.2% (Test II/IV).

As to `CC(=O)O[C@H]1CC(C)(C)C(=C=C/C(C)=C/C=C/C(C)=C/C=C/C=C(C)/C=C/C=C(\C)C(=O)C[C@@]23O[C@]2(C)C[C@@H](O)CC3(C)C)[C@](C)(O)C1` [highly pure fucoxanthin, Fucoxanthin], the entries for the “Cholesterol level in plasma” value in test [1] (setting [6]) and in test [1] (setting [7]) were 2.35 ± 0.22^a mmol/L and 2.35 ± 0.11^b mmol/L, respectively. For the same compound, the “Triglyceride level in plasma” value in test [1] (setting [6]) is given as 1.15 ± 0.07^b mmol/L; in test [1] (setting [7]), 1.24 ± 0.07^b mmol/L. The Amount of feces is recorded as 0.226 ± 0.01^c g/day in test [2] (setting [6]) and 0.209 ± 0.01^bc g/day in test [2] (setting [7]). Moreover, the “Cholesterol content in feces” value is 237.88 ± 10.39^c umol/g in test [2] (setting [6]) and 508.79 ± 13.25^c umol/g in test [2] (setting [7]). In addition, the G6PD activity is given as 51.53 ± 4.31^a mmol/min/mg protein in test [3] (setting [6]) and 50.51 ± 3.74^a mmol/min/mg protein in test [3] (setting [7]). Further, the results for the CPT activity in test [4] (setting [6]) and in test [4] (setting [7]) were 13.36 ± 1.66^ab mmol/min/mg protein and 40.30 ± 12.10^c mmol/min/mg protein, respectively. Also, the β-Oxidation activity in the test on β-oxidation (setting [6]) is on record as 9.46 ± 2.56^bc mmol/min/mg protein; with β-oxidation (setting [7]) it was 13.28 ± 3.79^c mmol/min/mg protein. Further, the “Expression of mRNA, PPARα” value is 1.22 ± 0.08^ab in test [5] (setting [8]) and 1.57 ± 0.36^b in test [5] (setting [9]). The “Expression of mRNA, ME” value is on record as 0.84 ± 0.08^bc in the test with ME mRNA (setting [8]) and 0.53 ± 0.03^a in the test on ME mRNA (setting [9]).
